Test in all cases: In vitro antibacterial activity, MIC by agar double dilution method
Type in all cases: cell-based

For experiment [1], the system named is Enterococcus (6 strains). The conditions noted are these: clinical isolates, 35° C. 16 hrs. The text has this:
(§1) Experimental method: The agar double dilution method (Antimicrob. Agents and Chemother, 40, 1996, 720-726) was used to determine the minimum inhibitory concentration (MIC) of the series of compounds of the invention and the positive control drug linezolid for the test strains. The multipoint inoculation system (Denley A400) was employed to inoculate the bacteria on the agar plate surface with different concentrations of drugs; inoculation amount on each point was about 10^6 CFU/mL. The plates were incubated at 35° C. for 16 hrs before the results were observed. The lowest drug concentration contained in the Petri dish without bacterial growth was used as the minimum inhibitory concentration (MIC value) of the drug fir that strain.
(§2) Test strains: All the test strains were clinically isolated pathogens which were collected from the Nanjing region, and they were re-identified by routine methods before use. 31 strains of the clinically isolated pathogens were chosen, including 6 strains of Enterococcus, 5 Staphylococcus aureus sensitive strains; 5 Staphylococcus epidermidis sensitive strains; 6 Staphylococcus aureus resistant strains; 5 Staphylococcus epidermidis resistant strains; and 4 Streptococcus pneumoniae resistant strains.
(§3) Compounds to be tested were first added 2 ml of DMSO to help them fully dissolved, then added sterile double distilled water to the desired concentration; to all the Petri dish with added drug liquid were added 20 mL MIT medium which was heat-melted to be liquid-like, to make the final drug concentration in the Petri dish to be 64, 32, 16, 8, 4, 2, 1, 0.5, 0.25, 0.125, 0.0625, and 0.031 μg/mL.
(§4) The positive control group was LZ (linezolid, brand name Zyvox, approved by the FDA in 2000 to be firstly sold in the United States, which is the first and also the only one of oxazolidinone antibacterial drugs allowed to enter clinical application).

The test system of experiment [2] is Staphylococcus epidermidis resistant strains (5 strains). The conditions noted are these: clinical isolates.
Text: as §1, §2, §3, §4

Experiment [3] has as its system Staphylococcus aureus sensitive strains (5 strains). The conditions noted are these: clinical isolates.
Text: as §1, §2, §3, §4

Experiment [4] has as its system Staphylococcus aureus resistant strains (6 strains). The conditions noted are these: clinical isolates.
Text: as §1, §2, §3, §4

Experiment [5] concerns Staphylococcus epidermidis sensitive strains (5 strains). The conditions noted are these: clinical isolates.
Text: as §1, §2, §3, §4

Experiment [6] deals with Streptococcus pneumoniae resistant strains (4 strains). The conditions noted are these: clinical isolates.
Text: as §1, §2, §3, §4

Converted amounts (≈) assume the structure as drawn.

By MIC is commonly meant the lowest concentration found to suppress growth. A high value points to a need for much substance. With `NC1(c2ccc(-c3ccc4c(c3)OC[C@H]3[C@H](CO)OC(=O)N43)cn2)CC1` [Compound 29, (3R,3aS)-7-(6-(1-aminocyclopropyl)pyridin-3-yl)-3-(hydroxylmethyl)-3a,4-dihydrobenzo[b]oxazolo[3,4-d][1,4]oxazin-1(3H)-one], the MIC in experiment [1] was 2 mg/L (≈ 5.66 µM); in experiment [2] it was 1 to 2 mg/L (≈ 2.83 to 5.66 µM); in experiment [3] it was 2 to 4 mg/L (≈ 5.66 to 11.3 µM); in experiment [4], 1 mg/L (≈ 2.83 µM); in experiment [5], 1 mg/L (≈ 2.83 µM); in experiment [6] it was 1 to 2 mg/L (≈ 2.83 to 5.66 µM).
As for `NCc1ccc(-c2ccc3c(c2)OC[C@H]2[C@H](CO)OC(=O)N32)cn1` [Compound 30, (3R,3aS)-7-(6-(aminomethyl)pyridin-3-yl)-3-(hydroxylmethyl)-3a,4-dihydrobenzo[b]oxazolo[3,4-d][1,4]oxazin-1(3H)-one], the MIC in experiment [1] is 4 to 8 mg/L (≈ 12.2 to 24.4 µM); in experiment [2], 0.5 to 4 mg/L (≈ 1.53 to 12.2 µM); in experiment [3], 2 to 4 mg/L (≈ 6.11 to 12.2 µM); in experiment [4], 2 to 4 mg/L (≈ 6.11 to 12.2 µM); in experiment [5], 1 to 2 mg/L (≈ 3.05 to 6.11 µM); in experiment [6], 4 to 16 mg/L (≈ 12.2 to 48.9 µM).
In the case of `O=C1CNCCN1c1ccc(-c2ccc3c(c2)OC[C@H]2[C@H](CO)OC(=O)N32)cn1` [Compound 31, (3R,3aS)-3-(hydroxylmethyl)-7-(6-(2-oxopiperazin-1-yl)pyridin-3-yl)-3a,4-dihydrobenzo[b]oxazolo[3,4-d][1,4]oxazin-1(3H)-one], the MIC in experiment [1] is 16 mg/L (≈ 40.4 µM); in experiment [2] it was 2 to 4 mg/L (≈ 5.05 to 10.1 µM); in experiment [3], 2 to 4 mg/L (≈ 5.05 to 10.1 µM); in experiment [4], 2 to 4 mg/L (≈ 5.05 to 10.1 µM); in experiment [5] it was 2 to 4 mg/L (≈ 5.05 to 10.1 µM); in experiment [6], 4 mg/L (≈ 10.1 µM).
Turning to `NCC1CN(c2ccc(-c3ccc4c(c3)OC[C@H]3[C@H](CO)OC(=O)N43)cn2)C(=O)O1` (stereo partly drawn) [Compound 33, (3R,3aS)-7-(6-(5-(aminomethyl)-2-oxooxazolidin-3-yl)pyridin-3-yl)-3-(hydroxylmethyl)-3a,4-dihydrobenzo[b]oxazolo[3,4-d][1,4]oxazin-1(3H)-one], the MIC in experiment [1] is 1 to 2 mg/L (≈ 2.42 to 4.85 µM); in experiment [2] it was 2 mg/L (≈ 4.85 µM); in experiment [3] it was 1 to 2 mg/L (≈ 2.42 to 4.85 µM); in experiment [4] it was 1 to 2 mg/L (≈ 2.42 to 4.85 µM); in experiment [5], 0.5 to 1 mg/L (≈ 1.21 to 2.42 µM); in experiment [6], 2 mg/L (≈ 4.85 µM).

Values taken from US9416144B2, “Benzoxazine oxazolidinone compound, preparation method and application thereof” (priority 2012, dated 2016).
